Test results: patent US20030204875A1, “Novel agrobacterium-mediated plant transformation method” (priority 1999, published 2003)
Read-outs that look alike come from different tables or passages of the source.

Legend:
[1] = system: T-DNA delivery to immature embryos of corn genotype H99×A188; settings: co-culture with 10 μM AgNO3, three days
Procedure: The Agrobacterium strain was pre-induced as described previously and three mls of pre-induced Agrobacterium suspension (A660 OD 1.0, 2.0, 3.0 and 4.0) was used. After adding the explants the Agrobacterium suspension cells, the inoculation was performed for 15 minutes. The Agrobacterium suspension was removed and embryos were placed on 1/2 MS corn co-culture medium supplemented with 10 ? M AgNO3 (final concentration). The co-culture duration was for three days in the dark. The efficiency of T-NA delivery was estimated by a transient GUS analysis three days after co-culture by incubating embryos directly in GUS staining buffer for 12-15 hours and counting the number of GUS foci per immature embryo explant (Table 20).

[2] = system: T-DNA transfer to immature embryos of genotype H99×A188; settings: for Average number of GUS foci/explant: three days
Procedure: (§1) Immature embryos of genotype H99×A188 were isolated as described above. The disarmed Agrobacterium strain ABI harboring binary vector pMON18365 (FIG. 2) was used. The Agrobacterium strain was pre-induced as described above and three mls of pre-induced Agrobacterium suspension (A660 OD 4.0) was added to a 6-well tissue culture plate as described earlier. The inoculation was performed for three hours under vacuum. The Agrobacterium suspension was removed and embryos were placed on respective semi-solid medium containing various concentrations of AgNO3 (0, 10, 20, 40, 60 ? M AgNO3 final concentration). All the tissues were incubated for three days in the dark. The efficiency of T-DNA delivery was estimated by a transient GUS analysis performed three days after co-culture by counting the number of GUS foci per immature embryo explant (Table 21). Efficiency of culture response was determined by transferring the embryos to a delay medium (D medium, supplemented with 500 mg/L Carbenicillin) and taking observation 2 weeks post transfer.

[3] = system: immature embryos of genotype H99×A188; settings: observed 2 weeks post transfer to delay medium
Procedure: as §1

corn immature embryos = system: corn immature embryos
Procedure: (§2) The following transformation protocols included the following parameters: use of immature embryos that were pre-cultured for less than 24 h; a bacterial inoculation density >2.0 at OD660, a co-culture duration of from one to three days, the use of a higher concentration of auxin or different type of auxin/combination of growth regulators than that required during normal tissue culture, a delay period 3-7d following co-culture (with out selection pressure), no sub-culture of the original explant, a step-wise increase or decrease, depending on the crop and selection scheme and a transformation duration between 9-12 weeks.

rice immature embryos = settings: OD660 2.0 plus 20 mM AgNO3, co-culture one day
Procedure: as §2

wheat immature embryos = settings: OD660 4.0 plus 20 mM AgNO3, co-culture three days
Procedure: as §2

[4] = system: immature embryos of genotype (H99×Pa 91)A188
Procedure: Immature embryos of genotype (H99×Pa 91)A188 were isolated as described. […] The Agrobacterium strain was pre-induced as described and three mls of pre-induced Agrobacterium suspension (A660 OD 0.5) supplemented with 20 ? M AgNO3 was added to a 6-well tissue culture plate as described above. Inoculation was performed for 15 minutes. The Agrobacterium suspension was removed and embryos were placed on semi-solid co-culture medium containing 20 ? M AgNO3 (final concentration). All the tissues were incubated for three days in the dark. […] Control embryos were cultured in the absence of AgNO3 in all steps of the transformation process. Transformation efficiency was calculated based on the number of embryos producing paromomycin resistant calli.

[5] = system: immature embryos of genotype (H99×Pa 91)A188; test: Transformation efficiency of corn with different growth inhibiting agents during co-culture; type: cell-based; settings: three days, OD 4.0
Procedure: b) Biological assay (leaf bleach assay). Leaf samples (a leaf punch) from approximately 2-week-old seedlings were placed in wells of 24-well cell culture clusters (Costar Corporation, Cambridge, Mass.). Each well was filled with 0.5 ml aqueous solution composed of 300 mg/L paromomycin (Sigma) and 100 mg/L Benlate (a fungicide made by Du Pont), 100 mg/IL Benlate alone was used as a control. Three leaf samples from the same leaf of each plant were placed in two wells containing paromomycin plus Benlate and one well containing Benlate alone, respectively. Leaf samples from non-transformed plants were used as negative controls. The samples were vacuum-infiltrated in a dessicator using an in-house vacuum system for 5 min and then the clusters were sealed tightly with parafilm before being placed under light (140 μMol m-2s-1). The results were determined after 60 hours.
Immature embryos of genotype (H99×Pa 91)A188 were isolated as described. […] The Agrobacterium strain was pre-induced as described. The inoculation was performed using a concentration of A660 OD 4.0 for 15 minutes as described. Post inoculation, Agrobacterium suspension was removed and embryos were placed on different semi-solid co-culture media supplemented with various bacteriocidal compounds. All the tissues were incubated for three days in the dark. The transformation protocol followed was as described previously (corn IE transformation) except that the 1st selection with 50 mg/L Paromomycin was replaced with 25 mg/L Paromomycin for 2 weeks and 50 mg/L Paromomycin for 2 additional weeks. Transformation efficiency was calculated based on the number of embryos producing nptII positive plants as determined by a leaf bleach assay as described earlier. Three weeks after the transformation, the quality and growth characteristics of IE-derived callus co-cultured in the presence of different growth inhibiting agents.

[6] = 10 μM AgNO3 in co-culture medium
[7] = 20 μM AgNO3 in co-culture medium
[8] = 40 μM AgNO3 in co-culture medium
[9] = 60 μM AgNO3 in co-culture medium

## O=[N+]([O-])[O-].[Ag+] [AgNO3, silver nitrate]
[1]; OD660 1.0, Pre-induced
  Average number of GUS foci/explant: 7
[1]; OD660 2.0, Not pre-induced (grown in LB)
  Average number of GUS foci/explant: 2
[1]; OD660 2.0, Pre-induced
  Average number of GUS foci/explant: 28
[1]; OD660 3.0, Pre-induced
  Average number of GUS foci/explant: 39
[1]; OD660 4.0, Not pre-induced (grown in LB)
  Average number of GUS foci/explant: <1
[1]; OD660 4.0, Pre-induced
  Average number of GUS foci/explant: 66
[2]; 10 μM AgNO3 during co-culture
  Effect on frequency of T-DNA transfer and tissue survival: positive effect
[2]; [6]
  Average number of GUS foci/explant: 63
[2]; [7]
  Average number of GUS foci/explant: 26
[2]; [8]
  Average number of GUS foci/explant: 28
[2]; 60 μM AgNO3 during co-culture
  Effect on T-DNA transfer: inhibitory
[2]; [9]
  Average number of GUS foci/explant: 12
[3]; [6]
  % of immature embryos responding to culture: 42%
[3]; [7]
  % of immature embryos responding to culture: 64%
[3]; [8]
  % of immature embryos responding to culture: 62%
[3]; [9]
  % of immature embryos responding to culture: 60%
Corn immature embryos; OD660 2.0 plus 20 μM AgNO3, co-culture three days
  Transformation (%): 18%
Corn immature embryos; OD660 4.0 plus 20 μM AgNO3, co-culture three days
  Transformation (%): 8%
Rice immature embryos
  Transformation (%): 23%
Wheat immature embryos
  Transformation (%): 4%
[4]; 5d 20 μM AgNO3: present during inoculation and 5 day delay, not during 3 day co-culture
  % Transformation: 7.8 (4/51) %
[4]; 8d 20 μM AgNO3: present during inoculation, 3 day co-culture and 5 day delay
  % Transformation: 9.0 (5/55) %
[5]; 20 μM in co-culture medium
  % Transformation: 16%
[5]; 50 μM in co-culture medium
  % Transformation: 6.3%
